Source: patent US6780848B2, “Use of GPE to protect glial cells or non-dopaminergic cells from death from neural injury or disease” (NeuronZ, Ltd., priority 1993, dated 2004)

Tests used:
[1] = system: hypoxic-ischemic injury to one cerebral hemisphere, adult Wistar rats; experiment: Experiment 1: IGF-1 and/or MK801 2 hours after unilateral hypoxic-ischemic injury, histology at 120 hours; format: in vivo, rat; conditions: treatment 2 hours after hypoxia, IGF-1 50 μg intraventricular, MK801 1 mg, controls 65%
Experimental: One carotid artery was ligated and the animal was subjected two hours later to a defined period of inhalational hypoxia. The degree, length of hypoxia, ambient temperature and humidity were defined to standardise the degree of damage. They were sacrificed five days later for histological analysis using stains (acid-fuchsin) specific for necrotic neurons.
Adult Wistar rats (68 280-320 g) were prepared under 3% halothane/O2 anaesthesia. The right side carotid artery was ligated. A guide cannula was placed on the dura 8.2 mm anterior from bregma and 1.4 mm from midline on the right. The rats were allowed to recover from anaesthesia for 1 hour and were then placed in an incubator with humidity 85±5% and temperature 34±0.5C. for 1 hour before hypoxia. Oxygen concentration was reduced and maintained at 6±0.2 02% hypoxia for 10 minutes. […] Fifty micrograms of IGF-1 or vehicle alone (0.1% BSA in 0.15M PBS (pH 7.3)) were given via intra-ventricular (IVC) infusion. […] The intraventricular injections of 50 μg IGF-1 or vehicle alone were made into the right lateral ventricle at 1 μl/minute under 1.5%-2% halothane anaesthetic. […] The presence of cortical infarction, defined as a region of tissue death or parenchymal pan-necrosis due to death of glia as well as neurons, was determined via light microscopy by an assessor who was blinded to the experimental groupings.

[2] = system: ischemic brain injury, late gestation fetal sheep; conditions: ischemic model in fetal sheep; Tan et al Ann Neurol 32:677-682 (1992); cited from earlier work
[3] = system: ischemic brain injury, late gestation fetal sheep; experiment: Experiment 2: IGF-1 into lateral ventricle 2 hours after 30 minutes of brain ischemia in fetal sheep; format: in vivo
From the text: The objective of this study was to compare the effects of treatment either with IGF-1 (see FIG. 2) and previously published work with the NMDA antagonist MK810 after an ischemic brain injury on postischernic seizures and neuronal losses in fetal sheep. (Tan et al Ann Neurol 32:677-682 (1992)).
The methods were those of an earlier study (Tan et al Ann Neurol 32:677-682 (1992)). Briefly, late gestation fetal sheep were chronically instrumented to record EEG, nuchal activity and blood pressure, and were then returned to the uterus. Cortical EEG activity, nuchal activity and blood pressure were recorded throughout he experiment and the fetal brain subjected to 30 minutes of ischemia. Two hours later they were treated by an infusion of either 1 μg IGF-1 (n=6) or vehicle (artificial CSF) (n=6) into the lateral ventricle. Five days later the brains were fixed and assessed for neuronal loss as described previously (Tan et al Ann Neurol 32:677-682 (1992)).
In all cases the vehicle is the left-hand column and the effects of 1 μg of IGF-1 is on the right.

[4] = system: hypoxic-ischemic injury, 21 day old Wistar rats; conditions: rat, in vivo, ip
Experimental: The objective of this study was to compare the effects of treatment with GPE to that of a vehicle given 2 hours after an hypoxic-ischemic injury. The dose range of 2 to 200 μg was chosen to span a range of systemic doses that are greater than that required centrally (see experiment 3).
Unilateral hypoxic-ischemic injury was induced in 21 day old, 45±5 g Wistar rats. The rats underwent unilateral carotid ligation under light halothane anaesthesia.
Following one hour recovery they were placed in an incubator at 34 deg C. 85±5% humidity for one hour before the injury. They were subjected to 1 min inhalation hypoxia (FiO2 8.0%) and then returned to room temperature (22 deg C.) and normoxia. […]
Surviving and dead neurons were discriminated using the thionin/acid fuchsin staining technique (Guan et al J Cereb Blood Flow Metab. 13:609-616 (1993). The results, in which the height of a point is given by the ratio as a percentage of live neurones in the CA1-2 region on the right side to the number on the left side are shown in FIG. 5. Column A is vehicle, column B is 2 μg of GPE, column C is 20 μg of GPE, and column D is 200 μg of GPE. In this figure, the P value (0.031) was calculated by a method using one way ANOVA comparing many groups after Arcsin transformation.

Molecule	incidence of cortical infarction [1] [%]	suppression of cortical electroencephalographic activity [2]	suppression of postischemic seizure activity ([3]; 1 μg IGF-1 2 h after ischemia)	neuronal rescue (neuronal loss scores) ([3]; 1 μg IGF-1 into lateral ventricle 2 h after 30 minutes ischemia, assessed five days later)	passage of the blood-brain barrier [4]
insulin-like growth factor 1 [IGF-1]	33	did not suppress cortical electroencephalographic activity	did not suppress the postischemic seizure activity	rescued neurons	–
C[C@]12N[C@H](Cc3ccccc31)c1ccccc12 [MK801, reference compound]	50	–	–	–	–
NCC(=O)N1CCC[C@H]1C(=O)N[C@@H](CCC(=O)O)C(=O)O [GPE, gly-pro-glu]	–	–	–	–	can cross the blood-brain barrier
